Experimental data from the OPERA property sets (Mansouri et al. 2018).

Conditions: for log10 biotransformation half-life (days) / log10 BCF: fish

Row | SMILES | boiling point [°C] | melting point [°C] | also measured
1 | CCCCCCC(C)N (centres undefined) | 165 | – | –
2 | CCCC(=O)[O-].[Na+] | – | 251 | –
3 | CC1(C)[C@H](/C=C2\CCSC2=O)[C@@H]1C(=O)OCc1coc(Cc2ccccc2)c1 | – | 31 | –
4 | CC#CCO | 148 | -2.2 | –
5 | c1ccc(C2CCCC(C3CCCCC3)C2)cc1 (centres undefined) | – | – | log10 biotransformation half-life (days): 0.45
6 | Clc1cc2c(oc3c(Cl)c(Cl)c(Cl)cc32)c(Cl)c1Cl | – | 240 | log10 Koa: 10.9; log10 BCF: 3.98; log10 biotransformation half-life (days): 1.12
7 | c1ccc(-c2ccc(-c3ccccc3)cc2)cc1 | 376 | 210 | log10 vapour pressure (mmHg): -7; ready biodegradability: not readily biodegradable
8 | Cc1[nH]c(=O)n(C(C)(C)C)c(=O)c1Cl | – | 176 | log10 Koc (L/kg): 1.66; log10 vapour pressure (mmHg): -6.33; ready biodegradability: not readily biodegradable
9 | C/C=C(/C)CCC | 95.6 | -118 | –
10 | CC1=CC(=O)CC(C)(C)C1 | 215 | -8.1 | log10 Koc (L/kg): 1.4; log10 vapour pressure (mmHg): -0.358; ready biodegradability: readily biodegradable; log10 BCF: 0.3; log10 biotransformation half-life (days): -1.29
11 | CCCCCCCCCCCC(=O)O | 299 | 43.2 | log10 vapour pressure (mmHg): -4.8; log10 BCF: 2.4
12 | O=C(O)CCCCCCCC(=O)O | – | 106 | log10 vapour pressure (mmHg): -7.97
13 | CN(C)B(F)N(C)C | 106 | -44.3 | –
14 | CC(O)CC(C)O (centres undefined) | 199 | – | ready biodegradability: readily biodegradable
15 | CC1=CCC2CC1C2(C)C (racemic) | 156 | -60.5 | –
16 | C1CCC(C2CCCCC2)CC1 | 238 | 4 | log10 vapour pressure (mmHg): -0.967; log10 biotransformation half-life (days): 0.38
17 | FCCCCl | 80 | – | –
18 | COc1ccc(Br)cc1OC | 254 | – | –
19 | CCc1cc2cc(OC)c(OC)cc2c(Cc2ccccc2)n1 | – | 78.5 | –
20 | O=C(O)Cc1cccc2ccccc12 | – | 135 | log10 Koc (L/kg): 2.2; ready biodegradability: not readily biodegradable; log10 BCF: 0.47
21 | CC[C@H](c1ccc(O)cc1)[C@@H](CC)c1ccc(O)cc1 | – | 186 | –
22 | CCOC(=O)CC(=O)C(F)(F)F | 133 | – | –
23 | CCOP(=S)(OCC)SCS(=O)C(C)(C)C (centres undefined) | – | – | log10 Koc (L/kg): 2.18

Row | SMILES | boiling point [°C] | melting point [°C] | also measured
24 | CCC(C#N)CC | 146 | – | –
25 | CCCCOB(OCCCC)OCCCC | 234 | – | log10 vapour pressure (mmHg): -0.279
26 | c1ccc(COc2ccccc2)cc1 | 286 | 40 | log10 vapour pressure (mmHg): -2.2
27 | CC1(N)CCCC1 | 121 | – | –
28 | CC(C)(C)c1cc(N=Nc2ccccc2[N+](=O)[O-])c(O)c(C(C)(C)C)c1 | – | – | ready biodegradability: not readily biodegradable
29 | Oc1ccc(I)cc1 | – | 93.5 | ready biodegradability: not readily biodegradable
30 | CCN(Cc1ccncc1)C(=O)C(CO)c1ccccc1 (centres undefined) | – | 96.5 | –
31 | C=C(C)C=CC(=C)C | 146 | -9 | –
32 | FC(F)(F)C1(F)C(F)(F)C(F)(C(F)(F)F)C(F)(F)C(F)(C(F)(F)F)C1(F)F (centres undefined) | 125 | – | –
33 | O=C(O)c1ccc(CBr)cc1 | – | 230 | –
34 | CCCCCCCCCCCCCCCCCC(=O)O | 383 | 68.8 | log10 vapour pressure (mmHg): -6.14; ready biodegradability: readily biodegradable
35 | CCCCCCCCC(N)=O | – | 99.5 | –
36 | COc1cc(C)cc(C)c1 | 194 | – | –
37 | CCOc1ccc(C=O)cc1 | 249 | 13.5 | –
38 | CCCCC(=O)OC(=O)CCCC | 227 | -56.1 | –
39 | Clc1cc(Cl)c2c(Cl)cccc2c1Cl | – | – | log10 Koa: 8.58
40 | OCC(CO)(CBr)CBr | – | 113 | ready biodegradability: not readily biodegradable; log10 BCF: 0.68; log10 biotransformation half-life (days): -1.4
41 | CC1(C)CCCCC1=O | 172 | -20.5 | –
42 | C=C(C)C(C)(C)CC | 108 | -69 | log10 vapour pressure (mmHg): 1.48
43 | NC(=O)OCCCl | – | 75.5 | –
44 | OC1CCC1 | 124 | – | –
45 | CC(CCN(C)C)N(C)C (centres undefined) | 165 | – | –
46 | C=CCC1CCCCC1 | 132 | – | –

Row | SMILES | boiling point [°C] | melting point [°C] | also measured
47 | NS(=O)(=O)C(F)(F)C(F)(F)C(F)(F)C(F)(F)C(F)(F)C(F)(F)C(F)(F)C(F)(F)F | – | – | log10 vapour pressure (mmHg): -0.606
48 | C=Cc1ccc(OC)cc1 | 205 | – | –
49 | C[Si](C)(Cl)O[Si](C)(C)O[Si](C)(C)Cl | 184 | -53 | –
50 | COc1ccc2c(c1OC)CN(C)CCc1cc3c(cc1C(=O)C2)OCO3 | – | 160 | –
51 | O=[N+]([O-])c1ccc(Cl)c(Cl)c1 | 256 | 43 | log10 Henry constant (atm·m³/mol): -5.09; log10 Koc (L/kg): 2.53; log10 vapour pressure (mmHg): -1.99; ready biodegradability: not readily biodegradable; log10 BCF: 1.71; log10 biotransformation half-life (days): -0.27
52 | ClCC=C(Cl)Cl | 132 | – | –
53 | CC(=O)Oc1ccc(C(c2ccc(OC(C)=O)cc2)c2ccccn2)cc1 | – | 134 | –
54 | CC(C)c1ccc(O)c(O)c1 | 271 | 78 | –
55 | COC(=O)[C@]1(C)CCC[C@@]2(C)[C@H]1CC=C1C=C(C(C)C)CC[C@@H]12 | 362 | – | –
56 | CCCC(CC)C(C)CC (centres undefined) | 165 | – | –
57 | CCCCCCCOC(=O)CCCCC | 261 | -34.4 | –
58 | O=C1c2ccccc2C(=O)c2cc(Cl)ccc21 | – | 211 | ready biodegradability: not readily biodegradable; log10 BCF: 2.28; log10 biotransformation half-life (days): -0.36
59 | CN1CCCc2ccccc21 | 246 | – | –
60 | Cc1ccc(C)c(OCCCC(C)(C)C(=O)O)c1 | – | 62 | –
61 | O=C([O-])CF.[Na+] | – | 201 | –
62 | Cc1ccsc1/C=C/C1=NCCCN1C | – | 240 | –
63 | CCCCCC(C)CC (centres undefined) | 144 | -108 | log10 biodegradation half-life (days): 0.699; log10 vapour pressure (mmHg): 0.796
64 | CC(Cl)(CCl)CCl | 162 | – | –
65 | C=CCCCCCCCCCCCCC | 268 | -2.8 | log10 vapour pressure (mmHg): -2.34
66 | CCCCC(C)CC (centres undefined) | 118 | -100 | log10 biodegradation half-life (days): 0.477; log10 vapour pressure (mmHg): 1.29
67 | O=[N+]([O-])c1ccc(N=Nc2ccc(O)cc2)cc1 | – | – | log10 vapour pressure (mmHg): -9.52
